Laboratory results: patent publication US20250171457A1, “NITROGEN-CONTAINING HETEROCYCLIC COMPOUND HAVING NRF2 ACTIVATION EFFECT” (CHUGAI SEIYAKU KABUSHIKI KAISHA, priority 2022, published 2025)

Tested on: Nrf2 transcriptional activity (pARE-Luc reporter) in HepG2 cells
Experiment: In vitro Nrf2 transcriptional activity measurement by ARE-dependent reporter assay in HepG2 cell
Assay type: cell-based, human
Conditions: Homo sapiens; HepG2 cells transfected with pARE-Luc, 4 hours at 37° C.; luciferase activity of Example 1-54 or Example 17-23 at 3.75 μM defined as 100%
Summary of the method: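 HepG2 cells transfected with pGL4.37 (pARE-Luc), replated onto compound and incubated 4 h at 37° C; luciferase read by Bright-Glo luminescence. Response normalized to 100% set by a reference compound at 3.75 μM; EC50 from dose-response curve.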

In order of rising EC50:
1. COCCN1CCC2(C1)CN(c1cc(Cl)c(C(=O)N3COc4c(cccc4-c4cc(N5C6CCC5COC6)c(C(=O)O)cc4F)C3)c(Cl)c1)C2 [Compound 8-1, 4-[3-[2,6-Dichloro-4-[7-(2-methoxyethyl)-2,7-diazaspiro[3.4]octan-2-yl]benzoyl]-2,4-dihydro-1,3-benzoxazin-8-yl]-5-fluoro-2-(3-oxa-8-azabicyclo[3.2.1]octan-8-yl)benzoic acid]  1.6 nM
2. O=C(O)c1cc(F)c(-c2cccc3c2OCN(C(=O)c2c(Cl)cc(N4CCOC5CC54)cc2Cl)C3)cc1N1C2CCC1COC2 (stereo not drawn) [Compound 1-38, 4-[3-[2,6-Dichloro-4-(2-oxa-5-azabicyclo[4.1.0]heptan-5-yl)benzoyl]-2,4-dihydro-1,3-benzoxazin-8-yl]-5-fluoro-2-(3-oxa-8-azabicyclo[3.2.1]octan-8-yl)benzoic acid]  1.8 nM
3. Cc1cc(N2C[C@@H](C)N(C)C[C@H]2C)cc(Cl)c1C(=O)N1COc2c(cccc2-c2cc(N3C4CCC3COC4)c(C(=O)O)cc2F)C1 [Compound 19-4, 4-[3-[2-Chloro-6-methyl-4-[(2R,5R)-2,4,5-trimethylpiperazin-1-yl]benzoyl]-2,4-dihydro-1,3-benzoxazin-8-yl]-5-fluoro-2-(3-oxa-8-azabicyclo[3.2.1]octan-8-yl)benzoic acid]  1.9 nM
4. COCCn1cc(-c2cc(Cl)c(C(=O)N3COc4c(cccc4-c4ccc(C(=O)O)c(N5CCOCC5)c4)C3)c(Cl)c2)cn1 [Compound 3-28, 4-[3-[2,6-Dichloro-4-[1-(2-methoxyethyl)pyrazol-4-yl]benzoyl]-2,4-dihydro-1,3-benzoxazin-8-yl]-2-morpholin-4-ylbenzoic acid]  2.1 nM
5. O=C(O)c1cc(F)c(-c2cccc3c2OCN(C(=O)c2c(Cl)cc(N4CCN(C5CC5)CC4)cc2Cl)C3)cc1N1C2CCC1COC2 [Compound 4-12, 4-[3-[2,6-Dichloro-4-(4-cyclopropylpiperazin-1-yl)benzoyl]-2,4-dihydro-1,3-benzoxazin-8-yl]-5-fluoro-2-(3-oxa-8-azabicyclo[3.2.1]octan-8-yl)benzoic acid]  2.1 nM
6. CC1(N2CCOCC2)CN(c2cc(Cl)c(C(=O)N3COc4c(cccc4-c4cc(N5C6CCC5COC6)c(C(=O)O)cc4F)C3)c(Cl)c2)C1 [Compound 11-6, 4-[3-[2,6-Dichloro-4-(3-methyl-3-morpholin-4-ylazetidin-1-yl)benzoyl]-2,4-dihydro-1,3-benzoxazin-8-yl]-5-fluoro-2-(3-oxa-8-azabicyclo[3.2.1]octan-8-yl)benzoic acid]  2.4 nM
7. O=C(O)c1cc(F)c(-c2cccc3c2OCN(C(=O)c2c(Cl)cc(N4CC5(C4)OCCO5)cc2Cl)C3)cc1N1C2CCC1COC2 [Compound 5-4, 4-[3-[2,6-Dichloro-4-(5,8-dioxa-2-azaspiro[3.4]octan-2-yl)benzoyl]-2,4-dihydro-1,3-benzoxazin-8-yl]-5-fluoro-2-(3-oxa-8-azabicyclo[3.2.1]octan-8-yl)benzoic acid]  2.4 nM
8. COCCOC1CN(c2cc(Cl)c(C(=O)N3COc4c(cccc4-c4cc(N5C6CCC5COC6)c(C(=O)O)cc4F)C3)c(Cl)c2)C1 [Compound 6-8, 4-[3-[2,6-Dichloro-4-[3-(2-methoxyethoxy)azetidin-1-yl]benzoyl]-2,4-dihydro-1,3-benzoxazin-8-yl]-5-fluoro-2-(3-oxa-8-azabicyclo[3.2.1]octan-8-yl)benzoic acid]  2.4 nM
9. O=C(O)c1cc(F)c(-c2cccc3c2OCN(C(=O)c2c(Cl)cc(N4CC5COCC5C4)cc2Cl)C3)cc1N1CCOCC1 (stereo not drawn) [Compound 4-24, 4-[3-[4-(1,3,3a,4,6,6a-Hexahydrofuro[3,4-c]pyrrol-5-yl)-2,6-dichlorobenzoyl]-2,4-dihydro-1,3-benzoxazin-8-yl]-5-fluoro-2-morpholin-4-ylbenzoic acid]  2.7 nM
10. O=C(O)c1cc(F)c(-c2cccc3c2OCN(C(=O)c2c(Cl)cc(OC[C@H]4CCCO4)cc2Cl)C3)cc1N1C2CCC1COC2 [Compound 4-34, 4-[3-[2,6-Dichloro-4-[[(2R)-oxolan-2-yl]methoxy]benzoyl]-2,4-dihydro-1,3-benzoxazin-8-yl]-5-fluoro-2-(3-oxa-8-azabicyclo[3.2.1]octan-8-yl)benzoic acid]  3.8 nM
11. Cn1cc(-c2cc(Cl)c(C(=O)N3Cc4cccc(-c5ccc(C(=O)O)c(N6CCOCC6)c5)c4C(=O)N3)c(Cl)c2)cn1 [Compound 14-4, 4-[2-[2,6-Dichloro-4-(1-methylpyrazol-4-yl)benzoyl]-4-oxo-1,3-dihydrophthalazin-5-yl]-2-morpholin-4-ylbenzoic acid]  3.8 nM
12. CC1(C)COC2(CN(c3ccc(C(=O)N4COc5c(cccc5-c5cc(N6C7CCC6COC7)c(C(=O)O)cc5F)C4)c(Cl)c3)C2)OC1 [Compound 19-11, 4-[3-[2-Chloro-4-(7,7-dimethyl-5,9-dioxa-2-azaspiro[3.5]nonan-2-yl)benzoyl]-2,4-dihydro-1,3-benzoxazin-8-yl]-5-fluoro-2-(3-oxa-8-azabicyclo[3.2.1]octan-8-yl)benzoic acid]  4.3 nM
13. O=C(O)c1cc(F)c(-c2cccc3c2OCN(C(=O)c2c(Cl)cc(N4CC5(CN(CC6(F)COC6)C5)C4)cc2Cl)C3)cc1N1C2CCC1COC2 [Compound 7-1, 4-[3-[2,6-Dichloro-4-[6-[(3-fluorooxetan-3-yl)methyl]-2,6-diazaspiro[3.3]heptan-2-yl]benzoyl]-2,4-dihydro-1,3-benzoxazin-8-yl]-5-fluoro-2-(3-oxa-8-azabicyclo[3.2.1]octan-8-yl)benzoic acid]  4.8 nM
14. O=C(O)c1cc(F)c(-c2cccc3c2OCN(C(=O)c2c(Cl)cc(OC4CN(CC(F)(F)F)C4)cc2Cl)C3)cc1N1C2CCC1COC2 [Compound 8-8, 4-[3-[2,6-Dichloro-4-[1-(2,2,2-trifluoroethyl)azetidin-3-yl]oxybenzoyl]-2,4-dihydro-1,3-benzoxazin-8-yl]-5-fluoro-2-(3-oxa-8-azabicyclo[3.2.1]octan-8-yl)benzoic acid]  4.8 nM
15. CC(C)(O)Cn1cc(-c2cc(Cl)c(C(=O)N3COc4c(cccc4-c4ccc(C(=O)O)c(N5CCOCC5)c4)C3)c(Cl)c2)cn1 [Compound 15-1, 4-[3-[2,6-Dichloro-4-[1-(2-hydroxy-2-methylpropyl)pyrazol-4-yl]benzoyl]-2,4-dihydro-1,3-benzoxazin-8-yl]-2-morpholin-4-ylbenzoic acid]  4.9 nM
16. O=C(O)c1cc(F)c(-c2cccc3c2OCN(C(=O)c2c(Cl)cc(OC[C@H]4CCOC4)cc2Cl)C3)cc1N1C2CCC1COC2 [Compound 4-38, 4-[3-[2,6-Dichloro-4-[[(3S)-oxolan-3-yl]methoxy]benzoyl]-2,4-dihydro-1,3-benzoxazin-8-yl]-5-fluoro-2-(3-oxa-8-azabicyclo[3.2.1]octan-8-yl)benzoic acid]  5.1 nM
17. COCCN1CCN(c2cc(Cl)c(C(=O)N3CSc4c(cccc4-c4cc(N5CCOCC5)c(C(=O)O)cc4F)C3)c(Cl)c2)CC1 [Compound 1-69, 4-[3-[2,6-Dichloro-4-[4-(2-methoxyethyl)piperazin-1-yl]benzoyl]-2,4-dihydro-1,3-benzothiazin-8-yl]-5-fluoro-2-morpholin-4-ylbenzoic acid]  5.4 nM
18. C[C@@H]1CN(c2cnc(C(=O)N3COc4c(cccc4-c4cc(N5C6CCC5COC6)c(C(=O)O)cc4F)C3)c(Cl)c2)[C@H](C)CN1C [Compound 19-6, 4-[3-[3-Chloro-5-[(2R,5R)-2,4,5-trimethylpiperazin-1-yl]pyridine-2-carbonyl]-2,4-dihydro-1,3-benzoxazin-8-yl]-5-fluoro-2-(3-oxa-8-azabicyclo[3.2.1]octan-8-yl)benzoic acid]  6.3 nM
19. COc1cc(Cl)c(C(=O)N2COc3c(cccc3-c3cc(N4C5CCC4COC5)c(C(=O)O)cc3F)C2)c(Cl)c1 [Compound 4-40, 4-[3-(2,6-Dichloro-4-methoxybenzoyl)-2,4-dihydro-1,3-benzoxazin-8-yl]-5-fluoro-2-(3-oxa-8-azabicyclo[3.2.1]octan-8-yl)benzoic acid]  8.9 nM
20. Cn1ncc2c(-c3cc(Cl)c(C(=O)N4COc5c(cccc5-c5cc(N6C7CCC6COC7)c(C(=O)O)cc5F)C4)c(Cl)c3)cccc21 [Compound 3-7, 4-[3-[2,6-Dichloro-4-(1-methylindazol-4-yl)benzoyl]-2,4-dihydro-1,3-benzoxazin-8-yl]-5-fluoro-2-(3-oxa-8-azabicyclo[3.2.1]octan-8-yl)benzoic acid]  9.6 nM
21. CN1CCN(c2cc(Cl)c(C(=O)N3COc4c(cccc4-c4cc(N5C6CCC5COC6)c(C(=O)O)cc4F)C3)c(Cl)c2)CC12CC2 [Compound 20-9, 4-[3-[2,6-Dichloro-4-(4-methyl-4,7-diazaspiro[2.5]octan-7-yl)benzoyl]-2,4-dihydro-1,3-benzoxazin-8-yl]-5-fluoro-2-(3-oxa-8-azabicyclo[3.2.1]octan-8-yl)benzoic acid]  14 nM
22. CN(c1cc(-c2cccc3c2OCN(C(=O)c2c(Cl)cc(-c4cnn(C)c4)cc2Cl)C3)c(F)cc1C(=O)O)C1COC1 [Compound 12-4, 4-[3-[2,6-Dichloro-4-(1-methylpyrazol-4-yl)benzoyl]-2,4-dihydro-1,3-benzoxazin-8-yl]-5-fluoro-2-[methyl(oxetan-3-yl)amino]benzoic acid]  15 nM
23. COCCN1C2CC1CN(c1cc(Cl)c(C(=O)N3COc4c(cccc4-c4cc(N5C6CCC5COC6)c(C(=O)O)cc4F)C3)c(Cl)c1)C2 [Compound 7-14, 4-[3-[2,6-Dichloro-4-[6-(2-methoxyethyl)-3,6-diazabicyclo[3.1.1]heptan-3-yl]benzoyl]-2,4-dihydro-1,3-benzoxazin-8-yl]-5-fluoro-2-(3-oxa-8-azabicyclo[3.2.1]octan-8-yl)benzoic acid]  24 nM
24. O=C(O)c1ccc(-c2cccc3c2OCN(C(=O)c2c(Cl)cc(N4CCC(N5CCOCC5)CC4)cc2Cl)C3)nc1N1CCCCC1 [Compound 18-10, 6-[3-[2,6-Dichloro-4-(4-morpholin-4-ylpiperidin-1-yl)benzoyl]-2,4-dihydro-1,3-benzoxazin-8-yl]-2-piperidin-1-ylpyridine-3-carboxylic acid]  36 nM
